Experimental data from patent US7728019B2, “Biphenylcarboxamides” (priority 2002, dated 2010).

Assay: logP determination by HPLC on reverse-phase column (C 18), acidic range pH 2.3
Format: physicochemical
Conditions: for chromatographic logP: reverse-phase HPLC column (C 18); for logP (pH 2.3): HPLC, C 18 reverse-phase, 43° C.
Protocol: The logP values given in Table 1 were determined with EEC Directive 79/831 Annex V.A8 by HPLC (High Performance Liquid Chromatography) on a reverse-phase column (C 18). Temperature: 43° C. Mobile phases for the determination in the acidic range (pH 2.3): 0.1% aqueous phosphoric acid, acetonitrile; linear gradient from 10% acetonitrile to 90% acetonitrile. Calibration was carried out using unbranched alkan-2-ones (having 3 to 16 carbon atoms) with known logP values (determination of the logP values by the retention times using linear interpolation between two successive alkanones).

SMILES	chromatographic logP	logP (pH 2.3)
C=CCO/N=C(\C)c1ccc(-c2ccccc2NC(=O)c2c(C)nn(C)c2F)cc1 [Compound 17, N-(4′-{1-(allyloxyimino)-ethyl}-biphenyl-2-yl)-5-fluoro-1,3-dimethyl-1H-pyrazole-4-carboxamide]	3.8	
C=C(C)CO/N=C(/C)c1ccc(-c2ccccc2NC(=O)c2c(C)nn(C)c2F)cc1 [Compound 36]		4.18
CC#CCO/N=C(/C)c1ccc(-c2ccccc2NC(=O)c2c(C)nn(C)c2F)cc1 [Compound 37]		3.63
C=CCO/N=C(/C)c1ccc(-c2ccccc2NC(=O)c2ccoc2C)cc1 [Compound 38]		4.14
C=CCO/N=C(/C)c1ccc(-c2ccccc2NC(=O)C2=C(C)OCCS2)cc1 [Compound 39]		4.38
CC#CCO/N=C(/C)c1ccc(-c2ccccc2NC(=O)c2cccnc2Cl)cc1 [Compound 41]		3.48
C=CC(C)O/N=C(/C)c1ccc(-c2ccccc2NC(=O)c2cccnc2Cl)cc1 (stereo not drawn) [Compound 42]		2.89
C=C(C)CO/N=C(/C)c1ccc(-c2ccccc2NC(=O)c2sc(C)nc2C(F)(F)F)cc1 [Compound 44]		3.49
C=CC(C)O/N=C(/C)c1ccc(-c2ccccc2NC(=O)c2cn(C)nc2C(F)(F)F)cc1 (stereo not drawn) [Compound 46]		4.15
C=CC(C)O/N=C(/C)c1ccc(-c2ccccc2NC(=O)c2ccoc2C)cc1 (stereo not drawn) [Compound 47]		4.52
C=C(C)CO/N=C(/C)c1ccc(-c2ccccc2NC(=O)c2cn(C)nc2C(F)(F)F)cc1 [Compound 48]		4.14
CC#CCO/N=C(/C)c1ccc(-c2ccccc2NC(=O)c2ccoc2C)cc1 [Compound 50]		3.95
C=C(C)CO/N=C(/C)c1ccc(-c2ccccc2NC(=O)c2ccoc2C)cc1 [Compound 51]		4.51
C=C(C)CO/N=C(/C)c1ccc(-c2ccccc2NC(=O)c2cn(C)nc2C)cc1 [Compound 52]		3.52
C=CC(C)O/N=C(/C)c1ccc(-c2ccccc2NC(=O)c2cn(C)nc2C)cc1 (stereo not drawn) [Compound 53]		3.53
C/C(=N\OCC=C(Cl)Cl)c1ccc(-c2ccccc2NC(=O)c2cn(C)nc2C)cc1 [Compound 54, N-(4′-{1-[3,3-dichloroallyloxyimino]ethyl}biphenyl-2-yl)-1,3-dimethyl-1H-pyrazole-4-carboxamide]	3.97	
C=CC(C)O/N=C(/C)c1ccc(-c2ccccc2NC(=O)c2cn(C)cc2C(F)(F)F)cc1 (stereo not drawn) [Compound 57]		4.41
C=C(C)CO/N=C(/C)c1ccc(-c2ccccc2NC(=O)c2ccccc2C(F)(F)F)cc1 [Compound 58]		4.64
C=CC(C)O/N=C(/C)c1ccc(-c2ccccc2NC(=O)c2ccccc2C(F)(F)F)cc1 (stereo not drawn) [Compound 59]		4.65
C=C(C)CO/N=C(/C)c1ccc(-c2ccccc2NC(=O)c2cccnc2Cl)cc1 [Compound 60]		3.95
C/C(=N/OCC=C(Cl)Cl)c1ccc(-c2ccccc2NC(=O)c2ccoc2C)cc1 [Compound 61]		4.98
C/C(=N/OCC=C(Cl)Cl)c1ccc(-c2ccccc2NC(=O)c2sc(C)nc2C(F)(F)F)cc1 [Compound 62]		3.81
C/C(=N/OCC=C(Cl)Cl)c1ccc(-c2ccccc2NC(=O)c2cccnc2Cl)cc1 [Compound 63, 2-chloro-N-{4′-[1-(3,3-dichloroallyloxyimino)ethyl]-biphenyl-2-yl}nicotinamide]	4.43	
C#CCO/N=C(\C)c1ccc(-c2ccccc2NC(=O)c2sc(C)nc2C(F)(F)F)cc1 [Compound 67]		3.72
C#CCO/N=C(\C)c1ccc(-c2ccccc2NC(=O)c2cccnc2Cl)cc1 [Compound 68]		3.16
C#CCO/N=C(\C)c1ccc(-c2ccccc2NC(=O)c2cn(C)nc2C(F)(F)F)cc1 [Compound 70]		3.36
C#CCO/N=C(\C)c1ccc(-c2ccccc2NC(=O)c2c(C)nn(C)c2F)cc1 [Compound 71]		3.27
